Values of other authors as cited in PMC7365549 (ACS Omega, 2020).

Columns and labels:
5-HT3 = conditions: read-out: Ki, binding to 5-HT3 receptor
[1] = target: T1, human serotonin receptor 5-HT3 (Homo sapiens, UniProt P46098); conditions: read-out: Inhibition Constants (Ki) 5-HT3; comparison values
T1 sequence (P46098 24-478): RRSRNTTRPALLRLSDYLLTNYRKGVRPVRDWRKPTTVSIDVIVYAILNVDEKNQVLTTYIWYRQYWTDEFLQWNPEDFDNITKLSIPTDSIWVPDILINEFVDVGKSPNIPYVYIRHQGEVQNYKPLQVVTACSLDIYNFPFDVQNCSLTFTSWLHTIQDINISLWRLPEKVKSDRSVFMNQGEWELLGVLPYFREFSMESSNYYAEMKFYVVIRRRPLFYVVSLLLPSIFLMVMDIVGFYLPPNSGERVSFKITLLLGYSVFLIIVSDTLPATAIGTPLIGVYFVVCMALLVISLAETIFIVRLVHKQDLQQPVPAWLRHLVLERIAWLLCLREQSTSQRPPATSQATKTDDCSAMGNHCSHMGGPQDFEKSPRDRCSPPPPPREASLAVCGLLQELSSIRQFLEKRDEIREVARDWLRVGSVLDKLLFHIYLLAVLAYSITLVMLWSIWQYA

[2] = target: T2, human serotonin receptor 5-HT1A (Homo sapiens, UniProt P08908); conditions: read-out: Inhibition Constants (Ki) 5-HT1A; comparison values
T2 sequence (P08908 1-422): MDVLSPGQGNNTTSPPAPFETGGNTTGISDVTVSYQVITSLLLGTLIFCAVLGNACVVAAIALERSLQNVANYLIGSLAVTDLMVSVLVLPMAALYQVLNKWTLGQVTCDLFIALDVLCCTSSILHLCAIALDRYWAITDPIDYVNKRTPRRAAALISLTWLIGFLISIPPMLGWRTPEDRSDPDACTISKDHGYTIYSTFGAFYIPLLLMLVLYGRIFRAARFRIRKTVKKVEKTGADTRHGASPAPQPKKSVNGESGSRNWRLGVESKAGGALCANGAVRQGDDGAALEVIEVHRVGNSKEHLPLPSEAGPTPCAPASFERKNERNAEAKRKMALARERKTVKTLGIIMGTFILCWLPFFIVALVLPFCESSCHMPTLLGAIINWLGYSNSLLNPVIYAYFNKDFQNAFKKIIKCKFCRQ

[3] = target: human serotonin receptor 5-HT2A (Homo sapiens, UniProt P28223); conditions: read-out: Inhibition Constants (Ki) 5-HT2A; comparison values
Chain of human serotonin receptor 5-HT2A (P28223 whole entry): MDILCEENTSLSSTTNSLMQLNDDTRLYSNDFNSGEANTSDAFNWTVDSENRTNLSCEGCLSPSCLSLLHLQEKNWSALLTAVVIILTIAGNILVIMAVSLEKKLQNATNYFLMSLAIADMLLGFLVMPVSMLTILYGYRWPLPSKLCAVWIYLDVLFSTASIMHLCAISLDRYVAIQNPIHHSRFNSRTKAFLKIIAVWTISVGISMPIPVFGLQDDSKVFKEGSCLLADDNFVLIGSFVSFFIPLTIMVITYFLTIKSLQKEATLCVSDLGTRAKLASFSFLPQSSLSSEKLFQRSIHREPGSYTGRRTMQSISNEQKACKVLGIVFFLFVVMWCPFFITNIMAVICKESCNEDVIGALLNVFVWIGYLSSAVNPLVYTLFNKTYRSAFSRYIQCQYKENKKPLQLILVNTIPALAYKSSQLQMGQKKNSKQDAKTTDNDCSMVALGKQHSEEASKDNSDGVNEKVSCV

In the case of `C[N+](C)(C)CCc1c[nH]c2ccc([O-])cc12` [Bufotenidine, bufotenidine], the Ki (5-HT3) is listed as 0.017 µM.

For `CN(C)CCc1c[nH]c2cccc(O)c12` [psilocin], the Ki [1] is given as > 10 µM.

For `CN(C)CCc1c[nH]c2cccc(OP(=O)(O)O)c12` [psilocybin], the Ki [2] is given as > 10 µM, the Ki [3] is given as > 10 µM and the Ki [1] is given as > 10 µM.
